Experimental data as given in article PMC4838890, “Dynamic and flexible H3K9me3 bridging via HP1β dimerization establishes a plastic state of condensed chromatin” (Nature Communications, 2016).

How the values were obtained:
H3KC9me3 oligonucleosome = experiment: ITC, H3KC9me3 oligonucleosome; assay type: binding, Xenopus laevis; details: for Kd: read-out: Kd (apparent dissociation constant)
From the text: Mononucleosomes were reconstituted on a 187 bp DNA fragment containing the ‘601' sequence flanked on each site by a linker of 20 bp[55]. Oligonucleosomes were reconstituted on a 12 × 200 bp × 601 template. Plasmids carrying the respective inserts were purified using a Giga kit (Qiagen, Hilden, Germany). Templates for reconstitution were released from plasmids by restriction digest with BsoBI for mononucleosomes and a mix of DdeI, BfuCI, HaeII and EcoRI for oligonucleosomes. To separate vector backbone from DNA used for chromatin assembly stepwise precipitation with polyethylene glycol (PEG) 6000/0.5 M NaCl was carried out (final PEG concentration 2–9% and 20% (w/v)). DNA pellets were washed with 70% (v/v) ethanol and dissolved in water. Double stranded, short, biotinylated DNA linkers were ligated to the DNA template before chromatin reconstitution.
ITC measurements were performed on a iTC200 calorimeter (Microcal, Malvern, UK) at 25°C in binding buffer (10 mM triethanolamine (pH 7.5), 20 or 150 mM NaCl, 0.1 mM EDTA). Reaction heats were recorded by sequences of 37 injections of 1.8 mM hHP1β, spaced at 120 s intervals, into 250 μl of 60 μM H3 peptides, nucleosomes or oligonucleosomal arrays under constant stirring at 1,000 r.p.m. (injection #1–10: 0.5 μl each; injection #11–32: 1 μl each; injection #33–37: 2 μl each). Heats of dilution, obtained by the titration of hHP1β into buffer, were substracted from raw data before analysis. Raw data were integrated, normalized and the apparent heat change (Δq) of the reaction was plotted against the molecular ratio using the Origin software. For the determination of apparent enthalpy changes (ΔHapp), the molar association constant (KA), and the stoichiometry (n) of the interaction, non-linear least-square fitting of the Δq values was performed by the Origin software using a binding model of one set of identical binding sites.
Figure S4 Hiragami-Hamada et al. […]
Supplementary Figure 4: Quantitative analysis of interaction of hHP1β with H3K9me3-peptides and
(a) ITC measurements of H3K9me3-peptide/hHP1β WT interaction at 20 mM NaCl (left) and 150 mM
NaCl (right). Upper panels, raw data of heat release upon stepwise injection of recombinant protein into
solution of peptide; lower panels, plots of integrated heats of protein injections vs. molar ratio of hHP1β
WT per peptide calculated by MicroCal software. Injections #1-10: 0.5 µl; injections #11-32: 1 µ l;
(b) ITC measurements as in (a) but with H3K C9me3- oligonucleosomal arrays. […]

H3K9me3 oligonucleosomes = experiment: Chromatin coprecipitation, H3K9me3 oligonucleosomes; assay type: binding, Xenopus laevis
Protocol: 6.7 nM oligonucleosomes were incubated with 1 μM recombinant protein in 100 μl binding buffer (10 mM triethanolamine (pH 7.5), 150 mM NaCl, 5 mM MgCl2, 0.1 mM EDTA, 0.1% (v/v) Triton-X100) for 1 h on ice. Precipitated chromatin complexes were recovered by centrifugation at 16,100g for 30 min at 4°C. Pellets were washed once with 0.5 ml binding buffer and centrifuged for 15 min at 4 °C. Precipitated material was resuspended in 10 μl 1 × SDS loading buffer and boiled for 5 min before running on SDS–PAGE.
Supplementary Table 1: Summary of conditions used in the different experiments of this study.
experiment result modification template Temp. [NaCl] [MgCl2]
chromatin Fig. 1e,f; Fig. S1f-h; H3K9me3 oligo- 4 150 5

[1] = tested on: chromatin reporter array in U2OS cells; experiment: Chromatin reporter array (LacO) unfolding; assay type: cell-based; details: doxycycline 1 μg ml^−1 24 h, LacI-tethered, n>300
From the text: Figure 7 hHP1β dimerization is required for maintaining condensed cellular chromatin states. (a) Schematic diagram of the transgene system used to test chromatin compaction effects of hHP1β. A tandem array of the construct has been integrated into the genome of U2OS mammalian cells. Dox, doxycycline; rtTA, reverse tetracycline-controlled TET-VP16 transactivator, whose binding to tetracycline responsive elements (RE) is activated by doxycycline. (b) Together with mCherry-LacI, the indicated fusion proteins were transiently expressed in U2OS cells containing the chromatin reporter array as described in a. Representative confocal images in the absence or after induction of transcription from the array with doxycycline (Dox) are shown. DNA was stained with DAPI. Inlets show enlarged chromatin reporter array; scale bar, 10 μm. (c) Quantification of the results shown in b together with results of similar experiments using additional hHP1β mutant proteins. Averages of three independent experiments are plotted; error bars represent s.d.; n>300 for each condition; asterisks represent P<0.05 according to Student's t-test.
U2OS 2-6-3 CLTon cells[38] were kindly provided by Dr Supriya Prasanth (University of Illinois, IL, USA) and maintained in DMEM (high glucose+GlutaMax) (GIBCO/Invitrogen, Darmstadt, Germany) supplemented with 10% (v/v) TET system approved fetal bovine serum (Clontech, Saint-Germain-en-Laye, France), 50 μg ml^−1 hygromycin (Carl Roth, Karlsruhe, Germany) and 200 μg ml^−1 G418 (Clontech, Saint-Germain-en-Laye, France). For fluorescence microscopy, cells were grown on coverslips in a six-well plate without antibiotics. 500 ng plasmid DNA was transfected using Lipofectamine LTX and Plus reagent (Invitrogen, Darmstadt, Germany). 20 h post transfection, cells were treated with 1 μg ml^−1 doxycycline for 24 h for induction of rtTA expression. Cells were washed twice with PBS and fixed with 3.7% (v/v) formaldehyde/PBS for 10 min at RT. […] P values (according to Student's t-test) were calculated using GraphPad QuickCals (GraphPad, CA, USA).

Row | Substance | reduced interaction with H3KC9me3 oligonucleosomes compared with hHP1β WT (H3KC9me3 oligonucleosome; 150 mM NaCl) [fold] | Kd (H3KC9me3 oligonucleosome; 150 mM NaCl, pH 7.5, 25°C) [µM] | recovery with H3K9me3 oligonucleosomes (H3K9me3 oligonucleosomes; 6.7 nM oligonucleosomes, 1 μM protein, 150 mM NaCl, 5 mM MgCl2, 1 h on ice) | competition with hHP1β WT for interaction with H3K9me3 oligonucleosomes (H3K9me3 oligonucleosomes; competitive coprecipitation, Supplementary Fig. 2b) | unfolding of the array on activation [1] | Kd (apparent dissociation constant) (H3KC9me3 oligonucleosome; 20 mM NaCl, pH 7.5, 25°C, NB, not binding) | specificity for H3K9me3 (H3K9me3 oligonucleosomes; chromatin coprecipitation, 5 mM MgCl2) | dependence of recovery on DNA sequence (H3K9me3 oligonucleosomes; chromatin on linearized pUC18 or 12 x 5S rDNA)
1 | hHP1β I161A: CSD point mutant of hHP1β incapable of dimerization | 12 | 132 ± 24 | neither the monomeric CD alone nor an I161A mutant protein, which is incapable of dimerization[8], were significantly recovered with H3K9me3 oligonucleosomes | ineffective in competing with hHP1β WT | largely reduced by tethering of LacI-YFP-hHP1β WT but not the dimerization deficient I161A mutant |  |  | 
2 | hHP1β WT: recombinant human heterochromatin protein 1β (GenBank NM_001127228), 185 aa |  | 11 ± 2 |  |  | largely reduced | could not detect any binding | coprecipitated only with H3K9me1/2/3 but not H3K9me0 oligonucleosomes | independent of the DNA sequence used for chromatin reconstitution
